Test results as given in the NIST ThermoML archive (doi:10.1016/j.tca.2006.05.010).

Assays:
[1] = excess molar enthalpy (molar enthalpy of mixing); xn = mol fraction of the nth substance listed; settings: 308.15 K, 101 kPa, Liquid, Flow calorimetry
[2] = molar heat capacity at constant pressure; xn = mol fraction of the nth substance listed; settings: 308.15 K, 101 kPa, Liquid, Small sample (50 mg) DSC
[3] = molar heat capacity at constant pressure; settings: 101.33 kPa, Liquid, Small sample (50 mg) DSC
[4] = 101.33 kPa, Liquid, Vibrating tube method
[5] = refractive index (Na D-line) (dimensionless); settings: 101.33 kPa, Liquid, Standard Abbe refractometry

C1CCOC1 [tetrahydrofuran] + C[S+](C)[O-]
Settings | excess molar enthalpy [kcal/mol] | molar heat capacity at constant pressure [J/K/mol]
[1], x2 = 0.0457 | 0.0509 | –
[1], x2 = 0.0875 | 0.0889 | –
[1], x2 = 0.1257 | 0.117 | –
[1], x2 = 0.1608 | 0.138 | –
[1], x2 = 0.2233 | 0.167 | –
[1], x2 = 0.2771 | 0.183 | –
[1], x2 = 0.3651 | 0.204 | –
[1], x2 = 0.4339 | 0.208 | –
[1], x2 = 0.5349 | 0.209 | –
[1], x2 = 0.6332 | 0.201 | –
[1], x2 = 0.697 | 0.185 | –
[1], x2 = 0.7753 | 0.163 | –
[1], x2 = 0.8215 | 0.141 | –
[1], x2 = 0.8735 | 0.113 | –
[1], x2 = 0.902 | 0.0956 | –
[1], x2 = 0.9325 | 0.0696 | –
[1], x2 = 0.965 | 0.039 | –
[2], x2 = 0.0807 | – | 132.9
[2], x2 = 0.1171 | – | 133.6
[2], x2 = 0.2353 | – | 135.9
[2], x2 = 0.3233 | – | 137.7
[2], x2 = 0.4932 | – | 141.4
[2], x2 = 0.5284 | – | 142.3
[2], x2 = 0.5833 | – | 143.6
[2], x2 = 0.6359 | – | 144.9
[2], x2 = 0.7298 | – | 147.2
[2], x2 = 0.8269 | – | 149.8
[2], x2 = 0.893 | – | 151.6
[2], x2 = 0.9507 | – | 153.2

C1CCOCC1 [tetrahydropyran]
Settings | mass density [kg/m3] | molar heat capacity at constant pressure [J/K/mol] | refractive index
[3], 288.15 K | – | 143.9 | –
[3], 293.15 K | – | 146.3 | –
[3], 298.15 K | – | 147.9 | –
[3], 303.15 K | – | 149.7 | –
[3], 308.15 K | – | 151.7 | –
[3], 313.15 K | – | 154.3 | –
[3], 318.15 K | – | 156.5 | –
[3], 323.15 K | – | 159.1 | –
[3], 328.15 K | – | 161.6 | –
[3], 333.15 K | – | 164.2 | –
[4], 298.15 K | 879.31 | – | –
[4], 308.15 K | 868.85 | – | –
[5], 298.15 K | – | – | 1.4188
[5], 308.15 K | – | – | 1.4142

C1CCOCC1 [tetrahydropyran] + C[S+](C)[O-]
Settings | excess molar enthalpy [kcal/mol] | molar heat capacity at constant pressure [J/K/mol]
[1], x2 = 0.0543 | 0.0899 | –
[1], x2 = 0.1148 | 0.16 | –
[1], x2 = 0.1469 | 0.187 | –
[1], x2 = 0.1867 | 0.214 | –
[1], x2 = 0.2562 | 0.243 | –
[1], x2 = 0.3146 | 0.261 | –
[1], x2 = 0.4079 | 0.273 | –
[1], x2 = 0.4786 | 0.278 | –
[1], x2 = 0.5708 | 0.27 | –
[1], x2 = 0.6739 | 0.247 | –
[1], x2 = 0.7337 | 0.226 | –
[1], x2 = 0.8051 | 0.19 | –
[1], x2 = 0.8464 | 0.164 | –
[1], x2 = 0.8921 | 0.121 | –
[1], x2 = 0.9168 | 0.0985 | –
[1], x2 = 0.9429 | 0.0705 | –
[1], x2 = 0.9706 | 0.0375 | –
[2], x2 = 0.0834 | – | 152.1
[2], x2 = 0.1416 | – | 152.4
[2], x2 = 0.2619 | – | 152.8
[2], x2 = 0.376 | – | 153.1
[2], x2 = 0.4572 | – | 153.5
[2], x2 = 0.5817 | – | 153.7
[2], x2 = 0.6249 | – | 153.8
[2], x2 = 0.659 | – | 153.8
[2], x2 = 0.7619 | – | 153.9
[2], x2 = 0.8405 | – | 154
[2], x2 = 0.9268 | – | 154.2
[2], x2 = 0.952 | – | 154.3
